Reference: patent US12473295B2, “Substituted straight chain spiro derivatives” (Janssen Pharmaceutica NV, priority 2019, dated 2025)
Counter-ions that a name gives are not always drawn. Like-named read-outs stand apart in the source and are kept apart here.

What was measured:
[1] = biological target: menin/MLL (terbium chelate-labeled menin, FITC-MBM1 peptide) (Homo sapiens (Human), UniProt O00255); assay: Menin/MLL homogenous time-resolved fluorescence (HTRF) assay; type: binding;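 note: IC50 from percent inhibition of HTRF signal, normalized between wells without competitor and wells with a saturating competitor that displaces FITC-MBM1 from His-tagged menin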
[2] = test system: MOLM14 cells; assay: Proliferation assay (spheroid growth, 8 days), MOLM14; type: cell-based, human; details: MOLM14, 8 days, read-out: spheroid assay_OneTime MOLM14 IC50;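 note: spheroid size read as confluence by live-cell imaging, compounds added at a range of concentrations with 0.3% DMSO, DMSO-treated wells = 0%, highest reference dose = low control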
[3] = test system: KO-52 cells; assay: Proliferation assay (spheroid growth, 8 days), KO-52 control cell line; type: cell-based, human; details: read-out: spheroid assay_OneTime KO-52 IC50
Method: (§1) The anti-proliferative effect of menin/MLL protein/protein interaction inhibitor test compounds was assessed in human leukemia cell lines. The cell line MOLM14 harbors a MLL translocation and expresses the MLL fusion protein MLL-AF9, respectively, as well as the wildtype protein from the second allele. OCI-AML3 cells that carry the NPM1c gene mutation were also tested. […] KO-52 was used as a control cell line containing two MLL (KMT2A) wildtype alleles in order to exclude compounds that display general cytotoxic effects.
(§2) KO-52 and OCI-AML3 cell lines were propagated in alpha-MEM (Sigma Aldrich) supplemented with 20% heat-inactivated fetal bovine serum (HyClone), 2 mM L-glutamine (Sigma Aldrich) and 50 μg/ml gentamycin (Gibco).
(§3) In order to assess the anti-proliferative effects, 200 MOLM14 cells, 200 OCI-AML3 cells or 300 KO-52 cells were seeded in 200 μl media per well in […] round bottom, ultra-low attachment plates (Costar, catalogue number 7007). Cell seeding numbers were chosen based on growth curves to ensure linear growth throughout the experiment. Test compounds were added at different concentrations and the DMSO content was normalized to 0.3%. Cells were incubated for 8 days at 37° C. and 5% CO2. Spheroid like growth was measured in real-time by live-cell imaging (IncuCyteZOOM, Essenbio, 4× objective) acquiring images at day 8. Confluence (%) as a measure of spheroid size was determined using an integrated analysis tool.
(§4) In order to determine the effect of the test compounds over time, the confluence in each well as a measure of spheroid size, was calculated. Confluence of the highest dose of a reference compound was used as baseline for the LC (Low control) and the confluence of DMSO treated cells was used as 0% cytotoxicity (High Control, HC).
(§5) GraphPad Prism(version 7.00) was used to calculate the IC50. Dose-response equation was used for the plot of % Effect vs Log 10 compound concentration with a variable slope and fixing the maximum to 100% and the minimum to 0%.

[4] = test system: MEIS1 mRNA; assay: MEIS1 mRNA expression assay (Quantigene Singleplex) in MOLM14 cells; type: cell-based, human; details: 48 hours incubation;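 note: MEIS1 transcript levels read by probe hybridization and normalized to RPL28 mRNA, with IC50 fitted to fold changes across a rising compound concentration series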
[5] = test system: OCI-AML3 cells; assay: Proliferation assay (spheroid growth, 8 days), OCI-AML3; type: cell-based, human; details: Homo sapiens, OCI-AML-3, […], OCI-AML3, 8 days
Method: as §1, §2, §3, §4, §5

[6] = HTRF-30 min incubation IC50, 30 min incubation
[7] = read-out: HTRF-30 min incubation IC50, 30 min incubation

menin/MLL (terbium chelate-labeled menin, FITC-MBM1 peptide), sequence (O00255 other isoform, or with tags, fused parts or gaps): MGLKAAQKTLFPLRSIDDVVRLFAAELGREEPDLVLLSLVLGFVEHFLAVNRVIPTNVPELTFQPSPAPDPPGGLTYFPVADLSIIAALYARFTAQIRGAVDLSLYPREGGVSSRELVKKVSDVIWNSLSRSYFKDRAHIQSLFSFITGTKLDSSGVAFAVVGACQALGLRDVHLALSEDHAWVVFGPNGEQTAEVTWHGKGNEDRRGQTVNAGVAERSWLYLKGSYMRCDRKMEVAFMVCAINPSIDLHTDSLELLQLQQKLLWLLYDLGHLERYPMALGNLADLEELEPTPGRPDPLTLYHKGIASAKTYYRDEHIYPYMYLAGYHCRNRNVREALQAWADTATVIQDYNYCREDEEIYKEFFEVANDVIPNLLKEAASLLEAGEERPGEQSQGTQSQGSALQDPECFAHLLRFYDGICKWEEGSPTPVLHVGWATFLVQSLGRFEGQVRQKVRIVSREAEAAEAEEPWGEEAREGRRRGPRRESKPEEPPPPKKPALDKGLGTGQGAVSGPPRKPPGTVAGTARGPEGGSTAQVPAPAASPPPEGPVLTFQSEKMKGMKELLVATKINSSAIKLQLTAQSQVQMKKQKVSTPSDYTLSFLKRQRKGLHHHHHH

Row | SMILES | IC50 [1, 6] | IC50 ([2]; Homo sapiens, MOLM-14, […]) | IC50 ([4]; Homo sapiens, MOLM-14, 48 h) | IC50 [1, 7] | IC50 [2] | IC50 [4] | IC50 [5] | IC50 ([3]; Homo sapiens, […]) | IC50 [3]
1 | CCN(C(=O)c1cc(F)ccc1Oc1nncnc1N1CCC2(C1)CN([C@@H](CN)C(C)C)C2)C(C)C (single isomer, unassigned) [Compound 25, (*R)-2-((5-(2-(1-amino-3-methylbutan-2-yl)-2,6-diazaspiro[3.4]octan-6-yl)-1,2,4-triazin-6-yl)oxy)-N-ethyl-5-fluoro-N-isopropylbenzamide] | 10.5 nM | > 3750 nM | ~1200 nM | – | – | – | – | > 15000 nM | –
2 | CC(C)[C@H](CCC(C)(C)N)N1CC2(CCN(c3ncnnc3Oc3ccc(F)cc3-c3cncnc3C3CC3)C2)C1 (single isomer, unassigned) [Compound 38, (*S)-5-(6-(6-(2-(4-cyclopropylpyrimidin-5-yl)-4-fluorophenoxy)-1,2,4-triazin-5-yl)-2,6-diazaspiro[3.4]octan-2-yl)-2,6-dimethylheptan-2-amine] | 1.16 nM | 520 nM | ~1100 nM | – | – | – | – | > 15000 nM | –
3 | CC(C)[C@H](CCC(N)=O)N1CC2(CCN(c3ncnnc3Oc3ccc(F)cc3-c3cncnc3C3CC3)C2)C1 (single isomer, unassigned) [Compound 44] | 46.6 nM | > 3750 nM | > 2500 nM | – | – | – | – | > 15000 nM | –
4 | CNC(=O)CC[C@H](C(C)C)N1CC2(CCN(c3ncnnc3Oc3ccc(F)cc3-c3cncnc3C3CC3)C2)C1 (single isomer, unassigned) [Compound 46, (*R)-4-(6-(6-(2-(4-cyclopropylpyrimidin-5-yl)-4-fluorophenoxy)-1,2,4-triazin-5-yl)-2,6-diazaspiro[3.4]octan-2-yl)-N,5-dimethylhexanamide] | – | – | – | 59.7 nM | > 3750 nM | > 2500 nM | – | – | > 15000 nM
5 | CCN(C(=O)c1cc(F)ccc1Oc1nncnc1N1CCC2(C1)CN([C@@H](CCCN)C(C)C)C2)C(C)C [Compound 2, (S)-2-((5-(2-(6-amino-2-methylhexan-3-yl)-2,6-diazaspiro[3.4]octan-6-yl)-1,2,4-triazin-6-yl)oxy)-N-ethyl-5-fluoro-N-isopropylbenzamide formate] | 3.31 nM | 2220 nM | > 2500 nM | – | – | – | – | > 15000 nM | –
6 | CCN(C(=O)c1cc(F)ccc1Oc1nncnc1N1CCC2(C1)CN([C@@H](CCCNC(C)=O)C(C)C)C2)C(C)C [Compound 7, (S)-2-((5-(2-(6-acetamido-2-methylhexan-3-yl)-2,6-diazaspiro[3.4]octan-6-yl)-1,2,4-triazin-6-yl)oxy)-N-ethyl-5-fluoro-N-isopropylbenzamide] | 86.2 nM | > 3750 nM | > 2500 nM | – | – | – | – | > 15000 nM | –
7 | CCN(C(=O)c1cc(F)ccc1Oc1nncnc1N1CCC2(C1)CN([C@@H](CCCNC(=O)NC)C(C)C)C2)C(C)C [Compound 9, (S)—N-ethyl-5-fluoro-N-isopropyl-2-((5-(2-(2-methyl-6-(3-methylureido)hexan-3-yl)-2,6-diazaspiro[3.4]octan-6-yl)-1,2,4-triazin-6-yl)oxy)benzamide] | 44.7 nM | > 3750 nM | – | – | – | – | – | > 15000 nM | –
8 | CCN(C(=O)c1cc(F)ccc1Oc1nncnc1N1CCC2(C1)CN([C@@H](CCCNC)C(C)C)C2)C(C)C [Compound 20, (S)—N-ethyl-5-fluoro-N-isopropyl-2-((5-(2-(2-methyl-6-(methylamino)hexan-3-yl)-2,6-diazaspiro[3.4]octan-6-yl)-1,2,4-triazin-6-yl)oxy)benzamide hydrochloride] | – | > 940 nM | – | – | – | – | – | > 15000 nM | –
9 | CCN(C(=O)c1cc(F)ccc1Oc1nncnc1N1CCC2(C1)CN([C@H](CCCN(C)CC(F)(F)F)C(C)C)C2)C(C)C [Compound 21, (R)-N-ethyl-5-fluoro-N-isopropyl-2-((5-(2-(2-methyl-6-(methyl(2,2,2-trifluormethyl)amino)hexan-3-yl)-2,6-diazaspiro[3.4]octan-6-yl)-1,2,4-triazin-6-yl)oxy)benzamide] | 10.4 nM | > 940 nM | > 1000 nM | – | – | – | – | > 15000 nM | –
10 | CCN(C(=O)c1cc(F)ccc1Oc1nncnc1N1CCC2(C1)CN(C(CCNC(C)=O)C(C)C)C2)C(C)C (stereo not drawn) [Compound 29] | 2.42 nM | 970 nM | ~2250 nM | – | – | – | – | > 15000 nM | –
11 | CCN(C(=O)c1cc(F)ccc1Oc1nnc(Cl)nc1N1CCC2(C1)CN([C@H](CCCN(C)C)C(C)C)C2)C(C)C [Compound 411, (R)-2-((3-chloro-5-(2-(6-(dimethylamino)-2-methylhexan-3-yl)-2,6-diazaspiro[3.4]octan-6-yl)-1,2,4-triazin-6-yl)oxy)-N-ethyl-5-fluoro-N-isopropylbenzamide formate] | 0.33 nM | 210 nM | 110 nM | – | – | – | 680 nM | – | –
12 | CCN(C(=O)c1cc(F)ccc1Oc1nnc(C)nc1N1CCC2(C1)CN([C@H](CCCN)C(C)C)C2)C(C)C [Compound 413, (R)-2-((5-(2-(6-amino-2-methylhexan-3-yl)-2,6-diazaspiro[3.4]octan-6-yl)-3-methyl-1,2,4-triazin-6-yl)oxy)-N-ethyl-5-fluoro-N-isopropylbenzamide formate] | 0.051 nM | 720 nM | ~590 nM | – | – | – | 1490 nM | – | –

Now from value to compound, other results behind:

Row | IC50 [1, 6] | IC50 ([2]; Homo sapiens, MOLM-14, […]) | IC50 ([4]; Homo sapiens, MOLM-14, 48 h) | IC50 [1, 7] | IC50 [2] | IC50 [4] | IC50 [5] | SMILES | IC50 ([3]; Homo sapiens, […]) | IC50 [3]
13 | 2.28 nM | > 940 nM | > 1000 nM | – | – | – | – | CCN(C(=O)c1cc(F)ccc1Oc1nncnc1N1CCC2(C1)CN([C@@H](CCC(C)(C)N)C(C)C)C2)C(C)C (single isomer, unassigned) [Compound 31, (*S)-2-((5-(2-(6-amino-2,6-dimethylheptan-3-yl)-2,6-diazaspiro[3.4]octan-6-yl)-1,2,4-triazin-6-yl)oxy)-N-ethyl-5-fluoro-N-isopropylbenzamide] | > 15000 nM | –
14 | 2.84 nM | > 940 nM | > 1000 nM | – | – | – | – | CCN(C(=O)c1cc(F)ccc1Oc1nncnc1N1CCC2(C1)CN([C@@H](CCC(C)(C)N(C)C)C(C)C)C2)C(C)C (single isomer, unassigned) [Compound 33, (*S)-2-((5-(2-(6-(dimethylamino)-2,6-dimethylheptan-3-yl)-2,6-diazaspiro[3.4]octan-6-yl)-1,2,4-triazin-6-yl)oxy)-N-ethyl-5-fluoro-N-isopropylbenzamide] | > 15000 nM | –
15 | 2.6 nM | > 940 nM | > 1000 nM | – | – | – | – | CCN(C(=O)c1cc(F)ccc1Oc1nncnc1N1CCC2(C1)CN([C@@H](CCC(C)(C)NC)C(C)C)C2)C(C)C (single isomer, unassigned) [Compound 36, (*S)-2-((5-(2-(2,6-dimethyl-6-(methylamino)heptan-3-yl)-2,6-diazaspiro[3.4]octan-6-yl)-1,2,4-triazin-6-yl)oxy)-N-ethyl-5-fluoro-N-isopropylbenzamide hydrochloride] | > 15000 nM | –
16 | – | – | – | 70.4 nM | > 940 nM | > 1000 nM | – | CCN(C(=O)c1cc(F)ccc1Oc1nncnc1N1CCC2(C1)CN([C@@H](CCCO)C(C)C)C2)C(C)C (single isomer, unassigned) [Compound 48, (*S)—N-ethyl-5-fluoro-2-((5-(2-(6-hydroxy-2-methylhexan-3-yl)-2,6-diazaspiro[3.4]octan-6-yl)-1,2,4-triazin-6-yl)oxy)-N-isopropylbenzamide] | – | > 15000 nM
17 | 2.26 nM | 840 nM | ~990 nM | – | – | – | – | CCN(C(=O)c1cc(F)ccc1Oc1nncnc1N1CCC2(C1)CN([C@@H](CCCN(C)C)C(C)C)C2)C(C)C [Compound 5, (S)-2-((5-(2-(6-(dimethylamino)-2-methylhexan-3-yl)-2,6-diazaspiro[3.4]octan-6-yl)-1,2,4-triazin-6-yl)oxy)-N-ethyl-5-fluoro-N-isopropylbenzamide formate] | > 15000 nM | –
18 | 1.85 nM | 370 nM | ~670 nM | – | – | – | – | CCN(C(=O)c1cc(F)ccc1Oc1nncnc1N1CCC2(C1)CN([C@H](CCCN(C)CC(F)F)C(C)C)C2)C(C)C [Compound 16, (R)-2-((5-(2-(6-((2,2-difluoroethyl)(methyl)amino)-2-methylhexan-3-yl)-2,6-diazaspiro[3.4]octan-6-yl)-1,2,4-triazin-6-yl)oxy)-N-ethyl-5-fluoro-N-isopropylbenzamide] | 10500 nM | –
